Values quoted from earlier work in US20080268066A1, “Synergistic Formulation for Preventing and/or Treating Diabetes” (priority 2005, published 2008).
Where a name gives a salt, the structure may show the parent alone. Read-outs that look alike come from different tables or passages of the source.

Columns and labels:
[1] = tested on: women of polycystic ovary syndrome (PCOS); conditions: daily dose of 1500 mg, 8 weeks later, about 20 women
[2] = intravenous 600 mg, 5 times, after two weeks; control group 2 points
[3] = tested on: babies of mothers with diabetes / embryos in similar glucose concentration; conditions: 71%-88% without
homocysteine = conditions: human, in vivo
[4] = tested on: acute medicamentous kidney lesion
[5] = tested on: patients with retinal degeneration; conditions: among 16 patients; supplement every day for 6 months or more
prostate cancer = conditions: fraction

CN(C)C(=N)N=C(N)N [Metformin HCl]
women whose menstruation recovered to a normal level [1]: 86.7%

O=C(O)CCCCC1CCSS1 (stereo not drawn) [alpha_lipoic acid]
decrease of the feeling of pain [2]: 6 points

Nc1nc2ncc(CNc3ccc(C(=O)N[C@@H](CCC(=O)O)C(=O)O)cc3)nc2c(=O)[nH]1 [folic acid]
probability of babies' aplasia ([3]; embryos in similar glucose concentration with folic acid): 5%
probability of babies' aplasia ([3]; pregnant animals fed with folic acid): 3%
decrease of the level of homocysteine (homocysteine): 25%

N[C@@H](CCC(=O)N[C@@H](CS)C(=O)NCC(=O)O)C(=O)O [glutathione, L-glutamic acid-L-cysteine-glycine]
total effectiveness on blood urine ([4]; P<0.01): 89%
total effectiveness ([4]; P<0.05): 92%
total effectiveness on proteinuria ([4]; P<0.05): 57%

CC1=C[C@H](O)CC(C)(C)[C@H]1/C=C/C(C)=C/C=C/C(C)=C/C=C/C=C(C)/C=C/C=C(C)/C=C/C1=C(C)C[C@@H](O)CC1(C)C [lutein]
patients whose vision was apparently improved [5]: 12 patients

CC(C)=CCC/C(C)=C/C=C/C(C)=C/C=C/C(C)=C/C=C/C=C(C)/C=C/C=C(C)/C=C/C=C(\C)CCC=C(C)C [lycopene]
patients in whom cancer cells proliferation were stopped (prostatic carcinoma; human, in vivo): 44%
patients with size of the tumor not over 4 dm^3 (prostatic carcinoma; taken 3 weeks before the operation, 55% without): 85%

[Se] [selenium]
decrease of the occurrence of prostate cancer (prostate cancer): ½-⅓
